The text below walks through data of US20050222200A1, “AMIDE DERIVATIVES AS ION CHANNEL LIGANDS AND PHARMACEUTICAL COMPOSITIONS AND METHODS OF USING THE SAME” (Renovis, Inc., priority 2003, published 2005).

Sequence of VR1 (O35433 whole entry): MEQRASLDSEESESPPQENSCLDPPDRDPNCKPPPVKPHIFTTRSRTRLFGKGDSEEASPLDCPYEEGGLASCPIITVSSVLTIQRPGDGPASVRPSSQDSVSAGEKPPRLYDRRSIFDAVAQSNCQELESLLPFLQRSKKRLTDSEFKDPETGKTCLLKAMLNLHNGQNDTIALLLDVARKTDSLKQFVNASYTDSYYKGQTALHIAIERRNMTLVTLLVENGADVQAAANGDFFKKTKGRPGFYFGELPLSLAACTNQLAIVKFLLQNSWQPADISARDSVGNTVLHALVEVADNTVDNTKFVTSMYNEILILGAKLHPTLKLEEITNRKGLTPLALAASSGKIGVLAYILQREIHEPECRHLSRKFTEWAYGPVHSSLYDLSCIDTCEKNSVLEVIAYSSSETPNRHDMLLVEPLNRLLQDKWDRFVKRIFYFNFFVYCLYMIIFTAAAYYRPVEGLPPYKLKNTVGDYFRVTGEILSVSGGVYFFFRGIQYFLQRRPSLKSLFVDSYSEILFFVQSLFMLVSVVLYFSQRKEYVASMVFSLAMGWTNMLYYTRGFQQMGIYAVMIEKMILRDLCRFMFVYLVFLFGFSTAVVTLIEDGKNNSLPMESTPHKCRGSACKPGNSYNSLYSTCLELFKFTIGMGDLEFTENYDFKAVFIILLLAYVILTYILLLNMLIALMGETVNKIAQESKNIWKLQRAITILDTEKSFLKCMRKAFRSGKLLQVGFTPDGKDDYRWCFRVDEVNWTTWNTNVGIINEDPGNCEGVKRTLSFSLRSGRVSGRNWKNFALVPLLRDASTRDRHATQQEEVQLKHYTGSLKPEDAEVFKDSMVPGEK

The experiment concerns the target VR1 (Rattus norvegicus, UniProt O35433). In words: Calcium imaging assay: inhibition of capsaicin induced calcium influx in DRG neurons (Fura2, microscope). The format is cell-based. More on the design: endogenous in cells; host or cells: DRG neurons. The note with it: capsaicin stimulation; class symbols per legend. The procedure: VR1 protein is a heat-gated cation channel that […] resulting in neuronal membrane depolarization and elevated intracellular calcium levels. Therefore the functional activity of compounds at the VR1 receptor may be determined by measuring changes in intracellular calcium levels in neurons such as the dorsal root ganglion.
DRG neurons were grown on PDL coated 96-well black-walled plates, in the presence of DMEM medium containing 5% Penstrep, 5% Glutamax, 200 μg/ml hygromycin, 5 μg/ml blasticide and 10% heat inactivated FBS. Prior to assay, cells were loaded with 5 μg/ml Fura2 in normal saline solution at 37° C for 40 minutes. Cells were then washed with normal saline to remove dye before commencement of the experiment.
The plated neurons were transferred into a chamber on the stage of a Nikon eclipse TE300 microscope after which neurons were allowed to attain a stable fluorescence for about 10 minutes before beginning the experiment. The assay consists of two stages, a pretreatment phase followed by a treatment phase. First, a solution of the test compound was added from a multivalve perfusion system to the cells for 1 minute (pretreatment). Immediately following, capsaicin (250 nM) was added in the presence of the test compound (treatment) for a specific period between 20 and 60 seconds.
Fura2 was excited at […] to indicate relative calcium ion concentration. Changes in wavelength measurements were made throughout the course of the experiment. The fluorescence ratio was calculated by dividing fluorescence measured at 340 nm by that at 380 nM. Data was collected using Intelligent Imaging’s Slidebook software. All compounds that inhibited capsaicin induced calcium influx greater than 75% were considered positives.
Fluorescence reflecting calcium ion influx is reduced.
As for `CCC/C=C/c1ccc(C(=O)Nc2ccccc2Cl)cc1` [Compound 233], the “inhibition of calcium ion influx induced by capsaicin stimulation” value (“inhibition of calcium ion influx induced” below) is on record as “+ (compound exhibited 0-25% inhibition of calcium ion influx induced by capsaicin stimulation)”.
Regarding `CCC/C=C/c1ccc(C(=O)Nc2cc(C)ccn2)cc1` [Compound 234], the “inhibition of calcium ion influx induced” value is given as “+ (compound exhibited 0-25% inhibition of calcium ion influx induced by capsaicin stimulation)”.
The same measure for `CCC/C=C/c1ccc(C(=O)NCC(C)C)cc1` [Compound 236]: “+ (compound exhibited 0-25% inhibition of calcium ion influx induced by capsaicin stimulation)”.
On to `CCC/C=C/c1ccc(C(=O)NC2CCN(C)CC2)cc1` [Compound 237], for which the “inhibition of calcium ion influx induced” value was “+ (compound exhibited 0-25% inhibition of calcium ion influx induced by capsaicin stimulation)”.
As to `CCC/C=C/c1ccc(C(=O)NCc2ccc(OC)c(OC)c2)cc1` [Compound 238], the “inhibition of calcium ion influx induced” value is recorded as “+ (compound exhibited 0-25% inhibition of calcium ion influx induced by capsaicin stimulation)”.
With `CCC/C=C/c1ccc(C(=O)NCc2cccc(F)c2)cc1` [Compound 239], the “inhibition of calcium ion influx induced” value is listed as “++ (compound exhibited 25-50% inhibition of calcium ion influx induced by capsaicin stimulation)”.
Consider `CCC/C=C/c1ccc(C(=O)Nc2ccc(Cl)c(C(F)(F)F)c2)cc1` [Compound 242], for which the “inhibition of calcium ion influx induced” value is “++ (compound exhibited 25-50% inhibition of calcium ion influx induced by capsaicin stimulation)”.
In the case of `CCC/C=C/c1ccc(C(=O)Nc2cccc(C#N)c2)cc1` [Compound 244] it was “++ (compound exhibited 25-50% inhibition of calcium ion influx induced by capsaicin stimulation)”; in that of `CCC/C=C/c1ccc(C(=O)Nc2ccccc2CCO)cc1` [Compound 245], “+ (compound exhibited 0-25% inhibition of calcium ion influx induced by capsaicin stimulation)”.
On to `CCC/C=C/c1ccc(C(=O)Nc2ccc(C(C)(C)C)cc2)cc1` [Compound 246], for which the “inhibition of calcium ion influx induced” value is “+ (compound exhibited 0-25% inhibition of calcium ion influx induced by capsaicin stimulation)”.
With `CCC/C=C/c1ccc(C(=O)Nc2ccc(C(C)C)cc2)cc1` [Compound 247], the “inhibition of calcium ion influx induced” value is reported as “+ (compound exhibited 0-25% inhibition of calcium ion influx induced by capsaicin stimulation)”.
Turning to `CCC/C=C/c1ccc(C(=O)Nc2ccc(CCCC)cc2)cc1` [Compound 248], the “inhibition of calcium ion influx induced” value is “+++ (compound exhibited 50-75% inhibition of calcium ion influx induced by capsaicin stimulation)”.
`CCC/C=C/c1ccc(C(=O)Nc2cc(OC)cc(C(F)(F)F)c2)cc1` [Compound 249]: the “inhibition of calcium ion influx induced” value is given as “+ (compound exhibited 0-25% inhibition of calcium ion influx induced by capsaicin stimulation)”.
`CCC/C=C/c1ccc(C(=O)Nc2ccc3[nH]ccc3c2)cc1` [Compound 252]: the “inhibition of calcium ion influx induced” value is recorded as “+ (compound exhibited 0-25% inhibition of calcium ion influx induced by capsaicin stimulation)”.
As for `CCC/C=C/c1ccc(C(=O)Nc2cc(CC)ccn2)cc1` [Compound 256], the “inhibition of calcium ion influx induced” value is listed as “+ (compound exhibited 0-25% inhibition of calcium ion influx induced by capsaicin stimulation)”.
Consider `CCC/C=C/c1ccc(C(=O)Nc2ccc(Cl)nc2)cc1` [Compound 259], for which the “inhibition of calcium ion influx induced” value is given as “+ (compound exhibited 0-25% inhibition of calcium ion influx induced by capsaicin stimulation)”.
As to `CCC/C=C/c1ccc(C(=O)Nc2ccc(OC)nc2)cc1` [Compound 260], the “inhibition of calcium ion influx induced” value is “+ (compound exhibited 0-25% inhibition of calcium ion influx induced by capsaicin stimulation)”.
Regarding `CCC/C=C/c1ccc(C(=O)Nc2ccnc(Cl)c2)cc1` [Compound 261], the “inhibition of calcium ion influx induced” value is reported as “+ (compound exhibited 0-25% inhibition of calcium ion influx induced by capsaicin stimulation)”.
As to `CCC/C=C/c1ccc(C(=O)NCc2cccnc2)cc1` [Compound 267], the “inhibition of calcium ion influx induced” value is recorded as “+ (compound exhibited 0-25% inhibition of calcium ion influx induced by capsaicin stimulation)”.
Regarding `COc1ccccc1CNC(=O)c1ccc(/C(C)=C/C(C)(C)C)cc1` [Compound 275], the “inhibition of calcium ion influx induced” value is given as “+ (compound exhibited 0-25% inhibition of calcium ion influx induced by capsaicin stimulation)”.
With `C/C(=C\C(C)(C)C)c1ccc(C(=O)NCc2ccncc2)cc1` [Compound 281], the “inhibition of calcium ion influx induced” value is reported as “+ (compound exhibited 0-25% inhibition of calcium ion influx induced by capsaicin stimulation)”.
As to `C/C(=C\C(C)(C)C)c1ccc(C(=O)NC(c2ccccc2)c2ccccc2)cc1` [Compound 283], the “inhibition of calcium ion influx induced” value is listed as “+ (compound exhibited 0-25% inhibition of calcium ion influx induced by capsaicin stimulation)”.
For the molecule `C/C(=C\C(C)(C)C)c1ccc(C(=O)NCCc2ccccc2Cl)cc1` [Compound 286], the “inhibition of calcium ion influx induced” value is recorded as “+ (compound exhibited 0-25% inhibition of calcium ion influx induced by capsaicin stimulation)”.
Turning to `C/C(=C\C(C)(C)C)c1ccc(C(=O)NC2CCC(C(C)(C)C)CC2)cc1` (stereo not shown) [Compound 287], the “inhibition of calcium ion influx induced” value is given as “+ (compound exhibited 0-25% inhibition of calcium ion influx induced by capsaicin stimulation)”.
Consider `C/C(=C\C(C)(C)C)c1ccc(C(=O)NCCc2ccc(S(N)(=O)=O)cc2)cc1` [Compound 304], for which the “inhibition of calcium ion influx induced” value is listed as “+ (compound exhibited 0-25% inhibition of calcium ion influx induced by capsaicin stimulation)”.
In the case of `COc1cc(CNC(=O)c2ccc(/C(C)=C/C(C)(C)C)cc2)cc(OC)c1OC` [Compound 305], the “inhibition of calcium ion influx induced” value was “+ (compound exhibited 0-25% inhibition of calcium ion influx induced by capsaicin stimulation)”.
Take `C/C(=C\C(C)(C)C)c1ccc(C(=O)NCc2ccccn2)cc1` [Compound 308]: the “inhibition of calcium ion influx induced” value was “+ (compound exhibited 0-25% inhibition of calcium ion influx induced by capsaicin stimulation)”.
As for `C/C(=C\C(C)(C)C)c1ccc(C(=O)Nc2ccccc2O)cc1` [Compound 313], the “inhibition of calcium ion influx induced” value is “+ (compound exhibited 0-25% inhibition of calcium ion influx induced by capsaicin stimulation)”.
With `CCNC(=O)c1ccc(/C(C)=C/C(C)(C)C)cc1` [Compound 315], the “inhibition of calcium ion influx induced” value was “+ (compound exhibited 0-25% inhibition of calcium ion influx induced by capsaicin stimulation)”.
For the molecule `C/C(=C\C(C)(C)C)c1ccc(C(=O)NCc2cccs2)cc1` [Compound 316], the “inhibition of calcium ion influx induced” value was “++ (compound exhibited 25-50% inhibition of calcium ion influx induced by capsaicin stimulation)”.
As for `C/C(=C\C(C)(C)C)c1ccc(C(=O)Nc2cc(C)ccn2)cc1` [Compound 324], the “inhibition of calcium ion influx induced” value was “+ (compound exhibited 0-25% inhibition of calcium ion influx induced by capsaicin stimulation)”.
The same measure for `COc1ccc(NC(=O)c2ccc(/C(C)=C/C(C)(C)C)cc2)cc1Cl` [Compound 330]: “+ (compound exhibited 0-25% inhibition of calcium ion influx induced by capsaicin stimulation)”; for `C/C(=C\C(C)(C)C)c1ccc(C(=O)Nc2ccc(C(F)(F)F)cc2)cc1` [Compound 331]: “+++ (compound exhibited 50-75% inhibition of calcium ion influx induced by capsaicin stimulation)”.
Regarding `C/C(=C\C(C)(C)C)c1ccc(C(=O)Nc2cccc(C#N)c2)cc1` [Compound 332], the “inhibition of calcium ion influx induced” value was “+++ (compound exhibited 50-75% inhibition of calcium ion influx induced by capsaicin stimulation)”.
As to `C/C(=C\C(C)(C)C)c1ccc(C(=O)Nc2ccc(C(C)(C)C)cc2)cc1` [Compound 334], the “inhibition of calcium ion influx induced” value was “+++ (compound exhibited 50-75% inhibition of calcium ion influx induced by capsaicin stimulation)”.
For `CCCCc1ccc(NC(=O)c2ccc(/C(C)=C/C(C)(C)C)cc2)cc1` [Compound 336], the “inhibition of calcium ion influx induced” value was “++ (compound exhibited 25-50% inhibition of calcium ion influx induced by capsaicin stimulation)”.
Consider `COc1cc(NC(=O)c2ccc(/C(C)=C/C(C)(C)C)cc2)cc(C(F)(F)F)c1` [Compound 337], for which the “inhibition of calcium ion influx induced” value is given as “+ (compound exhibited 0-25% inhibition of calcium ion influx induced by capsaicin stimulation)”.
The same measure for `C/C(=C\C(C)(C)C)c1ccc(C(=O)Nc2ccc(C)cc2C)cc1` [Compound 338]: “+ (compound exhibited 0-25% inhibition of calcium ion influx induced by capsaicin stimulation)”.
The same measure for `C/C(=C\C(C)(C)C)c1ccc(C(=O)Nc2ccncn2)cc1` [Compound 341]: “+ (compound exhibited 0-25% inhibition of calcium ion influx induced by capsaicin stimulation)”; for `C/C(=C\C(C)(C)C)c1ccc(C(=O)Nc2ccc(C(F)(F)F)cn2)cc1` [Compound 344]: “+ (compound exhibited 0-25% inhibition of calcium ion influx induced by capsaicin stimulation)”.
